Target: T1, hT1R2/hT1R3 sweet receptor expressed in HEK293 cell line (Homo sapiens, UniProt Q7RTX0+Q8TE23)
T1 construct: expressed in transfected cells; host or cells: HEK293 derivative stably expressing Gα15 and hT1R2/hT1R3, clone S-9
T1 sequence (Q8TE23 20-839): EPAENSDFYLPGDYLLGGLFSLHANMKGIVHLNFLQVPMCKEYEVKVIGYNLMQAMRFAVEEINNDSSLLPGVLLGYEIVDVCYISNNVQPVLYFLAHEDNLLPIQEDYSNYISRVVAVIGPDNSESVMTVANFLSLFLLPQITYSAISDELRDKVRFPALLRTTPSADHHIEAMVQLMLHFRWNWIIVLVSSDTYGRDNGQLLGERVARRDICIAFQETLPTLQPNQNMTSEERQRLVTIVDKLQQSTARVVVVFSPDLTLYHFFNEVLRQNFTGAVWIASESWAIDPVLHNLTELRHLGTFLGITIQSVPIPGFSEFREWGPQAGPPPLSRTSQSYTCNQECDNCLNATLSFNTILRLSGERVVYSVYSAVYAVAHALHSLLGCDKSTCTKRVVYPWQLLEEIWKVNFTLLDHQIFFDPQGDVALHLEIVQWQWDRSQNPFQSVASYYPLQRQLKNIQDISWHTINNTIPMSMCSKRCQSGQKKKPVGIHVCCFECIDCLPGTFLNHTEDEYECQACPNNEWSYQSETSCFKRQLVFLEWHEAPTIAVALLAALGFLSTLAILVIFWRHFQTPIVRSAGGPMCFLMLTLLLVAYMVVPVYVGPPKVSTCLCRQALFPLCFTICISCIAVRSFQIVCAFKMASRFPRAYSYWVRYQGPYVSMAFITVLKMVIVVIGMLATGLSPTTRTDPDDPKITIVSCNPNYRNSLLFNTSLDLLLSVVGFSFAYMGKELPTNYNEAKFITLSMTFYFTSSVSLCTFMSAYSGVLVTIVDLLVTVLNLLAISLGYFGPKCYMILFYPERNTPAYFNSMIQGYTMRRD
T1 sequence (Q7RTX0 21-852): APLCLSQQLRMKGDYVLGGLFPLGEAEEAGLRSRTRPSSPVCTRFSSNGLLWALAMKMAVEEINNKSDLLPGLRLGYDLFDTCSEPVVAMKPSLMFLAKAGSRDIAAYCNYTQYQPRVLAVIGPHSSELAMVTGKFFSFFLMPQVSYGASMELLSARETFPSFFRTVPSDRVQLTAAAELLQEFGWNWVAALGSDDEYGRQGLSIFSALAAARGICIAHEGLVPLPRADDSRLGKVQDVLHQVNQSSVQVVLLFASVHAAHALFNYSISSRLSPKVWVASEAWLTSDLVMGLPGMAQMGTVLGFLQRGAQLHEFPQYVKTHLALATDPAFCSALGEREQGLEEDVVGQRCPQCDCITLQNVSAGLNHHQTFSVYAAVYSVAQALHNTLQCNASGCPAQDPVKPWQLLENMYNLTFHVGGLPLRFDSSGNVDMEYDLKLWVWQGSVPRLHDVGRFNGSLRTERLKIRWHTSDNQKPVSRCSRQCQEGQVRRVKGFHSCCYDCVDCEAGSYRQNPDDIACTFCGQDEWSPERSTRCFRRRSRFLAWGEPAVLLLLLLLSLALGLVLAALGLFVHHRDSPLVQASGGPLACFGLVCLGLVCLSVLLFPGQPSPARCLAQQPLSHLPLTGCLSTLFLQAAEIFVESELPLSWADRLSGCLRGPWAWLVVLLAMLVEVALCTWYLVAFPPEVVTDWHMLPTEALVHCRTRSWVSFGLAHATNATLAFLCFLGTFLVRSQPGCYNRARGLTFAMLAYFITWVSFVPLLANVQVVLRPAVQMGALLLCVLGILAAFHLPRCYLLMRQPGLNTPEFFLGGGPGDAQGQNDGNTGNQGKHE
Assay: In vitro hT1R2/hT1R3-HEK293 taste receptor activation assay (FLIPR)
Type: cell-based
Settings: read-out: EC50 for activation of a hT1R2/hT1R3 sweet receptor expressed in HEK293 cell line
In short: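 HEK293 cells stably expressing Gα15 and hT1R2/hT1R3 were loaded with Fluo-3AM (4 μM, 1 h, room temperature), then stimulated at room temperature in D-PBS. Peak fluorescence (ex 480/em 535 nm) was normalized to basal. Dose-responses were run in duplicate over 60 nM–30 μM, normalized to 400 mM D-fructose, and EC50 fitted by free-Hill non-linear regression.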

## CC(C)CNC(=O)C(C)(C)c1ccc(-c2cncc(C#N)c2)cc1 [Compound 23, 2-(4-(5-cyanopyridin-3-yl)phenyl)-N-isobutyl-2-methylpropanamide]
  EC50: 150 nM

— patent publication US7842324B2 (Senomyx, Inc., priority 2005, dated 2010)
